# Values joined by “and” are separate entries in the source; they are usually repeats but may differ in a detail not shown here. Equal values may be shown once. Read-outs that look alike come from different tables or passages of the source.
# Assays:
# Assay type in all cases: in vivo
# [1] = test system: bird's-eye speedwell (Veronica persica L; VERPE); test: Postemergence herbicidal activity of mixtures in cereal crops (greenhouse, visual injury); conditions: for VERPE Ob: Table 28
# Method in brief: (§1)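 Weeds grown in greenhouse (~14 h photoperiod, ~18/17 °C day/night) to second–third true leaf stage, sprayed postemergence with compound and second cereal herbicide alone or combined; solvent-blank controls. Injury scored visually after 20-22 days, 0–100% (complete kill); expected mixture activity = A+B−(A×B/100).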
# [2] = test system: wild pansy (Viola tricolor L; VIOTR); test: as above; conditions: Viola tricolor, post-emergence, read-out: VIOTR Ob
# Method in brief: as §1
# [3] = test system: Polygonum pensylvanicum L. (POLPY); test: Postemergence herbicidal mixtures for weed control in direct seeded rice (greenhouse, visual % injury); conditions: for % Injury Ob: POLPY
# [4] = test system: Scirpus maritimus L. (SCPMA); test: as above; conditions: SCPMA
# [5] = test system: lady's-thumb (Polygonum persicaria L; POLPE); test: Postemergence herbicidal activity of mixtures in cereal crops (greenhouse, visual injury)
# Method in brief: (§2)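 Visual injury, 0 = none to 100 = complete kill, rated 20–22 d after treatment versus solvent-sprayed controls. Applications were track-sprayer postemergence at 187 L/ha, at the 2nd–3rd true leaf stage, of Compound A or B esters/salts alone and in two- and three-way mixes with a second cereal herbicide. Expected mixture activity via Colby.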
# [6] = test system: canola (Brassica napus L; BRSNN); test: as above
# Method in brief: as §2
# [7] = test system: annual bluegrass (Poa annua L; POAAN); test: as above
# Method in brief: as §2
# [8] = test system: downy brome (Bromus tectorum L; BROTE); test: as above
# Method in brief: as §2
# [9] = test system: wild mustard (Sinapis arvensis L; SINAR); test: as above
# Method in brief: as §2
# [10] = test system: Italian ryegrass (Lolium multiflorum L; LOLMU); test: as above; conditions: for LOLMU: Table 13
# Method in brief: as §2
# [11] = test system: kochia (Kochia scoparia L; KCHSC); test: as above
# Method in brief: as §2
smiles,measurement,setting,value
"COC(=O)c1nc(-c2ccc(Cl)c(OC)c2F)cc(N)c1Cl [Compound A Methyl, 4-amino-3-chloro-6-(4-chloro-2-fluoro-3-methoxyphenyl)pyridine-2-carboxylic acid methyl ester]",pest or weed control at 17.5 g/ha,"[1]; Veronica persica, post-emergence, 17.5 g/ha, read-out: VERPE Ob",45%
same,pest or weed control at 35 g/ha,"[1]; Veronica persica, post-emergence, 35 g/ha, read-out: VERPE Ob",58%
same,pest or weed control at 70 g/ha,"[1]; Veronica persica, post-emergence, 70 g/ha, read-out: VERPE Ob",70%
same,pest or weed control at 17.5 g/ha,[2]; 17.5 g/ha,55%
same,pest or weed control at 35 g/ha,[2]; 35 g/ha,63%
same,pest or weed control at 70 g/ha,[2]; 70 g/ha,75%
same,% Injury Ob,[3]; 4.38 g/ha alone,10%
same,% Injury Ob,[3]; 8.75 g/ha alone,50%
same,% Injury POLPY Ob,[3]; alone 4.38 g/ha,50%
same,% Injury POLPY Ob,[3]; alone 8.75 g/ha,60%
same,% Injury Ob,[4]; 4.38 g/ha alone,0%
same,% Injury Ob,[4]; 8.75 g/ha alone,10%
same,POLPE Ob,[5]; 8.75 g/ha,50%
same,POLPE Ob,[5]; 17.5 g/ha,50%
same,POLPE Ob,[5]; 35 g/ha,65%
same,POLPE Ob,[5]; 70 g/ha,70%
same,BRSNN Ob,[6]; 8.75 g/ha,50%
same,BRSNN Ob,[6]; 17.5 g/ha,50%
same,BRSNN Ob,[6]; 35 g/ha,50%
same,BRSNN Ob,[6]; 70 g/ha,50%
same,POAAN Ob,"[7]; 35 g/ha, Table 9",0%
same,POAAN Ob,"[7]; 35 g/ha, Table 10",0%
same,POAAN Ob,"[7]; 70 g/ha, Table 9",3%
same,POAAN Ob,"[7]; 70 g/ha, Table 10",3%
same,POAAN Ob,"[7]; 140 g/ha, Table 9",3%
same,POAAN Ob,"[7]; 140 g/ha, Table 10",3%
same,BROTE Ob,"[8]; 35 g/ha, Table 8",0.0%
same,BROTE Ob,"[8]; 35 g/ha, Table 9",0%
same,BROTE Ob,"[8]; 35 g/ha, Table 10",0%
same,BROTE Ob,"[8]; 70 g/ha, Table 8",0.0%
same,BROTE Ob,"[8]; 70 g/ha, Table 9",0%
same,BROTE Ob,"[8]; 70 g/ha, Table 10",0%
same,BROTE Ob,"[8]; 140 g/ha, Table 8",13%
same,BROTE Ob,"[8]; 140 g/ha, Table 9",13%
same,BROTE Ob,"[8]; 140 g/ha, Table 10",13%
same,SINAR Ob,[9]; 17.5 g/ha,70% and 80%
same,SINAR Ob,[9]; 35 g/ha,80% and 85%
same,SINAR Ob,[9]; 70 g/ha,85%
same,LOLMU Ob,"[10]; 35 g/ha, Table 10",3%
same,LOLMU Ob,"[10]; 70 g/ha, Table 10",20%
same,LOLMU Ob,"[10]; 140 g/ha, Table 10",40%
"COc1c(Cl)ccc(-c2cc(N)c(Cl)c(C(=O)O)n2)c1F [Compound A TEA, 4-amino-3-chloro-6-(4-chloro-2-fluoro-3-methoxyphenyl)pyridine-2-carboxylic acid]",VERPE Ob,[1]; 35 g/ha,75%
same,VERPE Ob,[1]; 70 g/ha,80%
same,VERPE Ob,[1]; 140 g/ha,85%
same,pest or weed control at 8.75 g/ha,"[1]; Veronica persica, post-emergence, 8.75 g/ha alone, read-out: VERPE Ob",48%
same,pest or weed control at 17.5 g/ha,"[1]; Veronica persica, post-emergence, 17.5 g/ha alone, read-out: VERPE Ob",68%
same,pest or weed control at 35 g/ha,"[1]; Veronica persica, post-emergence, 35 g/ha alone, read-out: VERPE Ob",79%
same,pest or weed control at 35 g/ha,"[1]; Veronica persica, post-emergence, 35 g/ha, 1st VERPE column, read-out: VERPE Ob",60%
same,pest or weed control at 35 g/ha,"[1]; Veronica persica, post-emergence, 35 g/ha, 2nd VERPE column, read-out: VERPE Ob",75%
same,pest or weed control at 70 g/ha,"[1]; Veronica persica, post-emergence, 70 g/ha alone, read-out: VERPE Ob",88%
same,pest or weed control at 70 g/ha,"[1]; Veronica persica, post-emergence, 70 g/ha, 1st VERPE column, read-out: VERPE Ob",60%
same,pest or weed control at 70 g/ha,"[1]; Veronica persica, post-emergence, 70 g/ha, 2nd VERPE column, read-out: VERPE Ob",80%
same,pest or weed control at 140 g/ha,"[1]; Veronica persica, post-emergence, 140 g/ha, 1st VERPE column, read-out: VERPE Ob",60%
same,pest or weed control at 140 g/ha,"[1]; Veronica persica, post-emergence, 140 g/ha, 2nd VERPE column, read-out: VERPE Ob",85%
same,pest or weed control at 8.75 g/ha,[2]; 8.75 g/ha alone,30%
same,pest or weed control at 17.5 g/ha,[2]; 17.5 g/ha alone,40%
same,pest or weed control at 35 g/ha,[2]; 35 g/ha alone,47%
same,pest or weed control at 35 g/ha,[2]; 35 g/ha,30%
same,pest or weed control at 70 g/ha,[2]; 70 g/ha alone,60%
same,pest or weed control at 70 g/ha,[2]; 70 g/ha,60%
same,pest or weed control at 140 g/ha,[2]; 140 g/ha,60%
same,POLPE Ob,[5]; 8.75 g/ha alone,30%
same,POLPE Ob,[5]; 17.5 g/ha alone,41%
same,POLPE Ob,[5]; 35 g/ha alone,68%
same,POAAN Ob,"[7]; 35 g/ha, Table 16",0%
same,POAAN Ob,"[7]; 35 g/ha, Table 17",0%
same,POAAN Ob,"[7]; 70 g/ha, Table 16",0%
same,POAAN Ob,"[7]; 70 g/ha, Table 17",0%
same,POAAN Ob,"[7]; 140 g/ha, Table 16",0%
same,POAAN Ob,"[7]; 140 g/ha, Table 17",0%
same,BROTE Ob,"[8]; 35 g/ha, Table 15",0%
same,BROTE Ob,"[8]; 35 g/ha, Table 16",0%
same,BROTE Ob,"[8]; 35 g/ha, Table 18",0%
same,BROTE Ob,"[8]; 70 g/ha, Table 15",0%
same,BROTE Ob,"[8]; 70 g/ha, Table 16",0%
same,BROTE Ob,"[8]; 70 g/ha, Table 18",3%
same,BROTE Ob,"[8]; 140 g/ha, Table 15",0%
same,BROTE Ob,"[8]; 140 g/ha, Table 16",0%
same,BROTE Ob,"[8]; 140 g/ha, Table 18",3%
same,SINAR Ob,[9]; 8.75 g/ha,35%
same,SINAR Ob,[9]; 17.5 g/ha,60%
same,SINAR Ob,[9]; 35 g/ha,65%
same,SINAR Ob,[9]; 70 g/ha,70%
same,KCHSC Ob,[11]; 8.75 g/ha,35%
same,KCHSC Ob,[11]; 8.75 g/ha alone,65%
same,KCHSC Ob,[11]; 17.5 g/ha,60%
same,KCHSC Ob,[11]; 17.5 g/ha alone,77%
same,KCHSC Ob,[11]; 35 g/ha,65%
same,KCHSC Ob,[11]; 35 g/ha alone,92%
same,KCHSC Ob,[11]; 70 g/ha,70%
same,KCHSC Ob,[11]; 70 g/ha alone,99%
same,LOLMU,[10]; 35 g/ha,0%
same,LOLMU Ob,"[10]; 35 g/ha, Table 14",0%
same,LOLMU Ob,"[10]; 35 g/ha, Table 17",0%
same,LOLMU,[10]; 70 g/ha,0%
same,LOLMU Ob,"[10]; 70 g/ha, Table 14",3%
same,LOLMU Ob,"[10]; 70 g/ha, Table 17",0%
same,LOLMU,[10]; 140 g/ha,0%
same,LOLMU Ob,"[10]; 140 g/ha, Table 14",3%
same,LOLMU Ob,"[10]; 140 g/ha, Table 17",5%

# Reference: patent US10556865B2, “Synergistic herbicidal composition containing certain pyridine or pyrimidine carboxylic acids and certain cereal and rice herbicides” (Dow AgroSciences, LLC, priority 2007, dated 2020)
